Reference: patent publication US9012397B2 (priority 2011, dated 2015)

Tested on: unidentified sting
Design: species or system human
Settings: in vivo

## pGLU-ASN-TRP-LYS-C8 [ZEP3]
  clinical outcome: relief from the itching sensation within a number of minutes
  time until redness disappeared: 2 days
